The conditions of series [1]: phospholipid alone, not complexed with 22A; cited from earlier work.
For the next series, the system named is SARS-CoV. The conditions noted are these: via reduced or relocated ACE-2 receptors; cited from earlier work.
Series [2] in a line: Diameter of 22A-phospholipid sHDL complexes by DLS. It counts as physicochemical. The conditions noted are these: volume intensity average. How it is done:
The quality of resulting sHDL complexes were analyzed by following analytical techniques. The purity of sHDL complexes were determined by gel permeation chromatography (GPC), with UV detection at 220 nm, using a Tosoh TSK gel G3000SWxl column (Tosoh Bioscience, King of Prussia, PA). The sHDL diameters were determined by dynamic light scattering (DLS), using a Zetasizer Nano ZSP (Malvern Instruments, Westborough, MA) and the volume intensity average values were reported. Transition temperature of sHDL complexes were analyzed by differential scanning calorimetry (DSC) using Nano DSC (TA Instruments, New Castle, DE).

Series [3] has as its system NF-κB reporter, human TLR4 (HEK-Blue cells). The series can be described thus: LPS-induced NF-κB expression in HEK-Blue cells (Example X). The conditions noted are these: 0.1 mg/ml, LPS 2 ng/ml, 18 h. It counts as cell-based. How it is done:
FIG. 29A-I: sHDL complexes inhibit LPS-induced NF-κB activation in a lipid component and concentration dependent. HEK-Blue system was used to analyze neutralization of the LPS-induced inflammatory response. HEK-Blue cells were co-stimulated with 0.01, 0.03, and 0.1 mg/ml sHDL and 2 ng/ml LPS and incubated for 18 h. The activation of NF-κB reporter was quantified by measuring absorption at 650 nm (A-H). sHDL at 0.03 mg/ml were treated in presence of 2 ng/ml LPS and the activation of NF-κB reporter was quantified by measuring absorption at 650 nm (I).
The HEK-Blue cell system (InvivoGen) was used to analyze neutralization of the LPS-induced inflammatory response. HEK-Blue cells stably express reporter-linked human TLR4, CD14, MD2, and a NF-κB and are designed for studying the stimulation of human TLR4. Briefly, HEK-Blue cells were cultured in Dulbecco's Modified Eagle's Medium (DMEM) containing 10% low endotoxin fetal bovine serum (FBS) and selective antibiotics according to the manufacturer's instructions (InvivoGen). Growth medium was discarded and cells were resuspended in HEK-Blue Detection medium. Cells were seeded at 25,000 cells per well. The cells were treated with sHDL at 0.01, 0.03, or 0.1 mg/ml and 2 ng/ml of LPS. […] The blue color was quantified by measuring absorption at 650 nm using a SpectraMax M3 plate reader (Molecular Devices, Sunnyvale, CA).

A further series deals with endotoxemia rats. The following applies: cited from earlier work.
In series [4] the test system is endotoxemia mice (5 mg/kg LPS). The conditions noted are these: 100 mg/kg; cited from earlier work.

As for `CCCCCCCCCCCCCC(=O)OC[C@H](COP(=O)([O-])OCC[N+](C)(C)C)OC(=O)CCCCCCCCCCCCC` [DMPC, 1,2-dimyristoyl-sn-glycero-3-phosphatidylcholine], the Tm of phospholipid in series [1] was 24.5 °C. With methyl-β-cyclodextrin [MβCD], the SARS-CoV cell entry entry with SARS-CoV is reported as “inhibited”. On to `CCCCCCCCCCCCCCCC(=O)OC[C@H](COP(=O)([O-])OCC[N+](C)(C)C)OC(=O)CCCCCCCCCCCCCCC` [DPPC, 1,2-dipalmitoyl-sn-glycero-3-phosphatidylcholine], for which the Tm of phospholipid in series [1] is 41.6 °C. For the compound `CCCCCCCCCCCCCCCCCC(=O)OC[C@H](COP(=O)([O-])OCC[N+](C)(C)C)OC(=O)CCCCCCCCCCCCCCCCC` [DSPC, 1,2-distearoyl-sn-glycero-3-phosphatidylcholine], the Tm of phospholipid in series [1] is 54.5 °C. Consider “PVLDLFRELLNELLEALKQKLK (SEQ ID NO: 4) [22A peptide]”, for which the “Size (nm)” value in series [2] amounted to 4.49 nm; in series [2] (listed as 22A PEPTIDE), 4.488 nm. Further, the “activation of NF-kB” value in series [3] was “suppressed”. Turning to `CCCCCCCC/C=C\CCCCCCCC(=O)O[C@H](COC(=O)CCCCCCCCCCCCCCC)COP(=O)([O-])OCC[N+](C)(C)C` [POPC, 1-palmitoyl-2-oleoyl-phosphatidylcholine], the Tm of phospholipid in series [1] was −3.3±0.5 °C. For apoA-I: apolipoprotein A-I, the “plasma TNF-α” value in the series with endotoxemia rats (10 mg/kg 2 h post-LPS injection (1 mg/kg LPS)) is given as “reduce”. Moreover, the survival rate result in the series with endotoxemia rats (10 mg/kg, endotoxemia rats (5 mg/kg)) is listed as “increased”. Further, the mortality result in series [4] was “significantly lowered”.

Values taken from patent US20240050522A1, “COMPOSITIONS AND METHODS FOR PREVENTING, ATTENUATING, AND TREATING MEDICAL CONDITIONS WITH sHDL NANOPARTICLES” (The Regents of the University of Michigan, priority 2020, published 2024).
